In US20230234965A1, “N-LINKED MACROCYCLIC 4-(PYRAZOL-5-YL)-INDOLE DERIVATIVES AS INHIBITORS OF MCL-1” (Janssen Pharmaceutica NV, priority 2020, published 2023) one finds AC50 and Ki data, which are given here for eight compounds.

The test system of test [1] is MOLP-8 human multiple myeloma cell line. Description: Caspase-Glo 3/7 apoptosis induction assay in MOLP-8 cells. Conditions: MOLP8 cells, 2 hours at 37° C.; 30 µM highest conc.; averaged over all runs on all batches. Format: cell-based. An excerpt: MCL-1 is a regulator of apoptosis and is highly over-expressed in tumor cells that escape cell death. The assay evaluates the cellular potency of small-molecule compounds targeting regulators of the apoptosis pathway, primarily MCL-1, Bfl-1, Bcl-2, and other proteins of the Bcl-2 family. Protein-protein inhibitors disrupting the interaction of anti-apoptotic regulators with BH3-domain proteins initiate apoptosis.
The Caspase-Glo® 3/7 Assay is a luminescent assay that measures caspase-3 and -7 activities in purified enzyme preparations or cultures of adherent or suspension cells. The assay provides a proluminescent caspase-3/7 substrate, which contains the tetrapeptide sequence DEVD. This substrate is cleaved to release aminoluciferin, a substrate of luciferase used in the production of light. Addition of the single Caspase-Glo® 3/7 Reagent in an “add-mix-measure” format results in cell lysis, followed by caspase cleavage of the substrate and generation of a “glow-type” luminescent signal.
This assay uses the MOLP-8 human multiple myeloma cell line, which is sensitive to MCL-1 inhibition.
Cell cultures were maintained between 0.2 and 2.0 ×10^6 cells/mL. The cells were harvested by collection in 50 mL conical tubes. The cells were then pelleted at 500 g for 5 mins before removing supernatant and resuspension in fresh pre-warmed culture medium. The cells were counted and diluted as needed.
The assay reagent was prepared by transferring the buffer solution to the substrate vial and mixing. The solution may be stored for up to 1 week at 4° C. with negligible loss of signal.
Compounds were delivered in assay-ready plates (Proxiplate) and stored at -20° C. Assays always include 1 reference compound plate containing reference compounds. The plates were spotted with 40 nL of compounds (0.5% DMSO final in cells; serial dilution; 30 µM highest conc. ⅓ dilution, 10 doses, duplicates). The compounds were used at room temperature and 4 µL of pre-warmed media was added to all wells except column 2 and 23. The negative control was prepared by adding 1% DMSO in media. The positive control was prepared by adding the appropriate positive control compound in final concentration of 60 µM in media. The plate was prepared by adding 4 µL negative control to column 23, 4 µL positive control to column 2 and 4 µL cell suspension to all wells in the plate. The plate with cells was then incubated at 37° C. for 2 hours. The assay signal reagent is the Caspase-Glo solution described above, and 8 µL was added to all wells. The plates were then sealed and measured after 30 minutes.
The activity of a test compound was calculated as percent change in apoptosis induction as follows:
• %Effect (AC50) = 100 - ((sample-LC) / (HC-LC)) *100 • %Control = (sample /HC)* 100 • %Control min = ((sample-LC) / (HC-LC)) *100

Test [2] has as its target Myeloid Cell Leukemia 1 (Mcl-1) (Homo sapiens, UniProt Q07820). Description: Terbium labeled Mcl-1 HTRF binding assay (displacement of Cy5-labeled BIM BH3 peptide). Conditions: 25 pM Tb-Mcl-1, 8 nM Cy5 Bim peptide, [L] = 8 nM, Kd = 10 nM, 60 minutes at room temperature, read-out: Tb-MCL1 Ki. As for the experimental part:
Terbium labeled Myeloid Cell Leukemia 1(Mcl-1) homogeneous time-resolved fluorescence (HTRF) binding assay utilizing the BIM BH3 peptide (H2N-(C/Cy5Mal) WIAQELRRIGDEFN-OH) as the binding partner for Mcl-1.
This assay evaluated inhibition of the BH3 domain : Mcl-1 interaction by measuring the displacement of Cy5-labeled BIM BH3 peptide (H2N-(C/Cy5Mal) WIAQELRRIGDEFN-OH) in the HTRF assay format.
The following assay and stock buffers were prepared for use in the assay: (a) Stock buffer: 10 mM Tris-HCl, pH=7.5 + 150 mM NaCl, filtered, sterilized, and stored at 4° C.; and (b) 1X assay buffer, where the following ingredients were added fresh to stock buffer: 2 mM dithiothreitol (DTT), 0.0025% Tween-20, 0.1 mg/mL bovine serum albumin (BSA). The 1X Tb-Mcl-1 + Cy5 Bim peptide solution was prepared by diluting the protein stock solution using the 1X assay buffer (b) to 25 pM Tb-Mcl-1 and 8 nM Cy5 Bim peptide.
Using the Acoustic ECHO, 100 nL of 100x test compound(s) were dispensed into individual wells of a white 384-well Perkin Elmer Proxiplate, for a final compound concentration of 1x and final DMSO concentration of 1%. Inhibitor control and neutral control (NC, 100 nL of 100% DMSO) were stamped into columns 23 and 24 of assay plate, respectively. Into each well of the plate was then dispensed 10µL of the 1X Tb-Mcl-1 + Cy5 Bim peptide solution. The plate was centrifuged with a cover plate at 1000 rpm for 1 minute, then incubated for 60 minutes at room temperature with plates covered. The TR-FRET signal was read on an BMG PHERAStar FSX MicroPlate Reader at room temperature using the HTRF optic module (HTRF: excitation: 337 nm, light source: laser, emission A: 665 nm, emission B: 620 nm, integration start: 60 µs, integration time: 400 µs).
The BMG PHERAStar FSX MicroPlate Reader was used to measure fluorescence intensity at two emission wavelengths - 665 nm and 620 nm - and report relative fluorescence units (RFU) for both emissions, as well as a ratio of the emissions (665 nm/620 nm)*10,000. The RFU values were normalized to percent inhibition as follows: • % inhibition = (((NC - IC) - compound - IC)) / (NC - IC)) *100 where IC (inhibitor control, low signal) = mean signal of 1X Tb-MCl-1 + Cy5 Bim peptide+ inhibitor control or 100% inhibition of Mcl-1; NC (neutral control, high signal) = mean signal 1X Tb-MCl-1 + Cy5 Bim peptide with DMSO only or 0% inhibition An 11-point dose response curve was generated to determine IC50 values (using GenData) based on the following equation:
where Y = % inhibition in the presence of X inhibitor concentration; Top = 100% inhibition derived from the IC (mean signal of Mcl-1 + inhibitor control); Bottom = 0% inhibition derived from the NC (mean signal of Mcl-1 + DMSO); Hillslope = Hill coefficient; and IC50 = concentration of compound with 50% inhibition in relation to top/neutral control (NC).
In this assay [L] = 8 nM and Kd = 10 nM
On the technique in general: TR-FRET usually uses a lanthanide donor and a delayed reading to cut background.

Where only a bound is given, the exact number is not on record here.

Myeloid Cell Leukemia 1 (Mcl-1), sequence (Q07820 whole entry): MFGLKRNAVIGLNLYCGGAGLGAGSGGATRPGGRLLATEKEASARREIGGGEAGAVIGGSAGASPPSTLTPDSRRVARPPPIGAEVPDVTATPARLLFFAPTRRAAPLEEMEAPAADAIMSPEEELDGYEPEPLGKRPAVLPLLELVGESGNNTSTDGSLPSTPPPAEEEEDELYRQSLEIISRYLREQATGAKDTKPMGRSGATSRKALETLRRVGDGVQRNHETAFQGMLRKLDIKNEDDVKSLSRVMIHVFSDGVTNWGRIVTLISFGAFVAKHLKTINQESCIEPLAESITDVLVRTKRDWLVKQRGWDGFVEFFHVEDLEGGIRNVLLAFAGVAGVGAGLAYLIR

With `Cc1nn2c(c1C)-c1c(Cl)ccc3c1c(C)c(C(=O)O)n3CCCOc1cc(cc3ccccc13)SCc1cn(nn1)CCC2` (single isomer, unassigned) [Compound 6], the half-maximal activity concentration (AC50) in test [1] is greater than 30000 nM. For the same compound, in test [2], the Ki was determined as 445 nM.
Taken in the same sequence, the figures for `Cc1nn2c(c1C)-c1c(Cl)ccc3c1c(C)c(C(=O)O)n3CCCOc1cc(cc3ccccc13)SCc1cc(nn1C)CCC2` (single isomer, unassigned) [Compound 3] were 131 nM and 0.1 nM.
Take `Cc1nn2c(c1C)-c1c(Cl)ccc3c1c(C)c(C(=O)O)n3CCCOc1cc(cc3ccccc13)SCc1cnn(c1)CCC2` (single isomer, unassigned) [Compound 8]: the AC50 in test [1] turned out to be 27500 nM. In test [2], the inhibition constant (Ki) came out at 422 nM.
Taken in the same sequence, the figures for `Cc1nn2c(c1C)-c1c(Cl)ccc3c1c(C)c(C(=O)O)n3CCCOc1cc(cc3cc(F)ccc13)CCc1cc(nn1C)CCC2` (single isomer, unassigned) [Compound 1] were 26 nM and 0.04 nM.
Regarding `Cc1nn2c(c1C)-c1c(Cl)ccc3c1c(C)c(C(=O)O)n3CCCOc1cc(cc3ccccc13)SCc1cn(nn1)CCC2` (single isomer, unassigned) [Compound 5], the AC50 in test [1] was 8180 nM. Besides, the Ki in test [2] is 5.21 nM.
In turn, `Cc1nn2c(c1C)-c1c(Cl)ccc3c1c(C)c(C(=O)O)n3CCCOc1cc(cc3cc(F)ccc13)CCc1cc(nn1C)CCC2` (single isomer, unassigned) [Compound 2] showed an AC50 in test [1] of 1930 nM. The Ki in test [2] worked out at 3.28 nM.
For `Cc1nn2c(c1C)-c1c(Cl)ccc3c1c(C)c(C(=O)O)n3CCCOc1cc(cc3ccccc13)SCc1cc(nn1C)CCC2` (single isomer, unassigned) [Compound 4], in that order: 4010 nM and 1.57 nM.
Compound `Cc1nn2c(c1C)-c1c(Cl)ccc3c1c(C)c(C(=O)O)n3CCCOc1cc(cc3ccccc13)SCc1cnn(c1)CCC2` (single isomer, unassigned) [Compound 7] returned an AC50 in test [1] of 3180 nM. Further, the Ki in test [2] is 0.95 nM.

Usually AC50 stands for the concentration at which the activity in the assay is half-maximal. Usually Ki stands for a dissociation constant, usually derived from enzyme kinetics or from competition with a known ligand.
